# Experimental data as given in PubChem BioAssay AID1963427 (Molecular Pharmacology Branch, DTP, NCI, 2024).
# Tested on: 317291-083-R-J1-PDC complex spheroid growth
# Test: Anticancer human tumor 317291-083-R-J1-PDC patient-derived soft tissue sarcoma cell line growth inhibition [Asc]
# Settings: for IC50: curve of first compound; for viability, T/C: stronger effect = lower value
# How it was run: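 Concentration series start at each agent's clinical Cmax, or at 10 microM when none is established, and drop in half-log steps; agents are applied alone or together to complex spheroids built with HUVEC and hMSC.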
# 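Note: compound exposure lasted seven days after spheroids formed for three days.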
# 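Throughout, for viability, T/C: 100% = DMSO vehicle control wells.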
smiles,measurement,setting,value
CCN1C(C(=O)NC23CCC(C(=O)O)(CC2)CC3)C(c2cccc(Cl)c2F)C2(C(=O)Nc3cc(Cl)ccc32)C12CCCCC2 (configuration not stated) + Cc1c(S(C)(=O)=O)c(-c2cc(F)cc(N3CCN(c4ccc(NS(=O)(=O)c5ccc(NC(CCN6CCC(C(=O)OCCCP(=O)(O)O)CC6)CSc6ccccc6)c(S(=O)(=O)C(F)(F)F)c5)cc4)CC3)c2)c(-c2ccc(Cl)cc2)n1C(C)C,IC50,second compound 0.0316 µM,> 3 µM
same,IC50,second compound 0.1 µM,> 3 µM
same,IC50,second compound 0.316 µM,> 3 µM
same,IC50,second compound 1 µM,> 3 µM
same,IC50,second compound 3.16 µM,> 3 µM
same,IC50,second compound 10 µM,> 3 µM
same,"viability, T/C","second compound 0.0316 µM, first compound 0.00949 µM",108%
same,"viability, T/C","second compound 0.0316 µM, first compound 0.03 µM",122%
same,"viability, T/C","second compound 0.0316 µM, first compound 0.0949 µM",99.7%
same,"viability, T/C","second compound 0.0316 µM, first compound 0.3 µM",95.1%
same,"viability, T/C","second compound 0.0316 µM, first compound 0.949 µM",83.6%
same,"viability, T/C","second compound 0.0316 µM, first compound 3 µM",80.5%
same,"viability, T/C","second compound 0.1 µM, first compound 0.00949 µM",110%
same,"viability, T/C","second compound 0.1 µM, first compound 0.03 µM",90.2%
same,"viability, T/C","second compound 0.1 µM, first compound 0.0949 µM",89.5%
same,"viability, T/C","second compound 0.1 µM, first compound 0.3 µM",98.2%
same,"viability, T/C","second compound 0.1 µM, first compound 0.949 µM",108%
same,"viability, T/C","second compound 0.1 µM, first compound 3 µM",73.4%
same,"viability, T/C","second compound 0.316 µM, first compound 0.00949 µM",80.9%
same,"viability, T/C","second compound 0.316 µM, first compound 0.03 µM",90.8%
same,"viability, T/C","second compound 0.316 µM, first compound 0.0949 µM",90.3%
same,"viability, T/C","second compound 0.316 µM, first compound 0.3 µM",98.4%
same,"viability, T/C","second compound 0.316 µM, first compound 0.949 µM",91.5%
same,"viability, T/C","second compound 0.316 µM, first compound 3 µM",67.6%
same,"viability, T/C","second compound 1 µM, first compound 0.00949 µM",92.2%
same,"viability, T/C","second compound 1 µM, first compound 0.03 µM",90.3%
same,"viability, T/C","second compound 1 µM, first compound 0.0949 µM",68.9%
same,"viability, T/C","second compound 1 µM, first compound 0.3 µM",90.2%
same,"viability, T/C","second compound 1 µM, first compound 0.949 µM",89.7%
same,"viability, T/C","second compound 1 µM, first compound 3 µM",58%
same,"viability, T/C","second compound 3.16 µM, first compound 0.00949 µM",83.9%
same,"viability, T/C","second compound 3.16 µM, first compound 0.03 µM",84.1%
same,"viability, T/C","second compound 3.16 µM, first compound 0.0949 µM",68.6%
same,"viability, T/C","second compound 3.16 µM, first compound 0.3 µM",82.1%
same,"viability, T/C","second compound 3.16 µM, first compound 0.949 µM",85.9%
same,"viability, T/C","second compound 3.16 µM, first compound 3 µM",63.1%
same,"viability, T/C","second compound 10 µM, first compound 0.00949 µM",99.3%
same,"viability, T/C","second compound 10 µM, first compound 0.03 µM",102%
same,"viability, T/C","second compound 10 µM, first compound 0.0949 µM",90.8%
same,"viability, T/C","second compound 10 µM, first compound 0.3 µM",85.4%
same,"viability, T/C","second compound 10 µM, first compound 0.949 µM",94.8%
same,"viability, T/C","second compound 10 µM, first compound 3 µM",75.8%
